Structures are written as SMILES. Where only a bound is given, the exact number is not on record here.

Holding throughout (type): physicochemical
Data set [1] can be described thus: Influence of bases constituting nucleic acids on the stability of MGA (residual rate). The conditions noted are these: 0.1% MGA, pH 7.5, 60° C. for 3 days; adenine 0.01%, guanine, cytosine, uracil, thymine 0.2%. The method, then: The influence of bases (adenine, guanine, cytosine, uracil, and thymine) constituting nucleic acids on the stability of MGA and MG was investigated. A 0.1% MGA solution (adjusted to pH 7.5 with 0.1M phosphate buffer) each containing adenine (0.01%), guanine (0.2%), cytosine (0.2%), uracil (0.2%), or thymine (0.2%) was prepared. A 0.1% MG solution (adjusted to pH 7.5 with 0.1M phosphate buffer) each containing adenine (0.01%), cytosine (0.2%), uracil (0.2%), or thymine (0.2%) was prepared. After these solutions were left at 60° C. for 3 days for MGA, 20 days and 49 days for MG, the amounts of MGA and MG were measured to determine the residual rate.

Data set [2] is described as follows: Effect of 4-DG ratio on stabilizing MG and on coloring of the MG solution. The conditions noted are these: MG 0.1%, 4-DG ratio 1.5 to 11.1 parts by weight. The method, then: The effect of 4-DG on stabilizing MG was investigated. Solutions at pH 7 (in 0.1M phosphate buffer) containing various ratios of 4-DG to MG (0.1%) were prepared, and the amount of MG after standing at 60° C. for 57 days was measured. Then, the MG residual rate was determined. Additionally, the absorbance (400 nm) of the solution was measured over time during the experiment period.

A short description of data set [3]: Influence of pH on the stability of MG in solution and coloring of the MG solution. On the procedure: Influence of pH on the stability of MG in a solution and the coloring of an MG solution were investigated. Adjustment of the solution to each pH was performed using 0.1 M phosphate buffer and phosphoric acid and NaOH as necessary. The MG concentration in the solution was 0.1%. MG solutions of each pH were prepared and left at 60° C. for 4 days, and then the amount of MG and the absorbance (400 nm) of the solutions were measured. The MG residual rate was determined by comparing with the amount at the start of the experiment.

Setting [4] is: weakly acidic to weakly alkaline conditions, 60° C. for 4 days.

Consider `Nc1nc2nc[nH]c2c(=O)[nH]1` [guanine], for which the “stabilizing effect on MGA” value in data set [1] is “confirmed”.

On to `COC1=C(NCC(=O)O)C[C@@](O)(CO)CC1=O` [MG, mycosporine-glycine], for which the “residual rate of MG” value in data set [2] (pH 7, 60° C. for 57 days) was no less than 74%. In data set [2] (pH 7, 60° C., 57th day), the “absorbance (400 nm) of the solution” value is given as no more than 0.17. This molecule also showed an MG residual rate in data set [3] (0.1% MG, 0.1 M phosphate buffer, pH 5.4 to 8.8, 60° C. for 4 days) of no less than 88%. For the same molecule, in data set [3] (0.1% MG, pH 5.4 to 8.0, 60° C. for 4 days), the “absorbance (400 nm) of the solution” value is no more than 0.018. For the same molecule, in data set [3] (setting [4]), the “coloring of the MG solution” value is reported as “suppressed” and the “stability of MG” value is “stabilized”.

These data come from patent publication US20240358625A1, “STABILIZATION OF MYCOSPORINE-LIKE AMINO ACIDS” (NAGASE & CO., LTD., priority 2021, published 2024).
